According to publication PMC10614203, “Synthesis, Structure–Activity Relationships, Radiofluorination, and Biological Evaluation of [^18F]RM365, a Novel Radioligand for Imaging the Human Cannabinoid Receptor Type 2 (CB2R) in the Brain with PET” (Journal of Medicinal Chemistry, 2023):
pIC50, pKd: −log10 of the molar value. “And” between values parts separate entries of the source, which are not always exact repeats. Equal values may be shown once.

What was measured:
[1] = design: species or system mouse; settings: female, in vivo
From the text: The biodistribution of [^18F]RM365 was investigated in vivo in mice (n = 4) and rats (n = 2) by dynamic PET imaging studies.
Among others, increasing activity in the duodenum over time and accumulation in the brown adipose tissue (BAT) were observed (Figure S10). In contrast, a slow washout from the salivary glands, muscle, bones, and kidneys could be observed. An initial comparably high TAC peak value with a SUVmean > 4 in the liver, left ventricle (blood), heart wall, and lung followed by a fast washout and a subsequent slower washout phase could be observed. Furthermore, we conclude a mainly hepatic excretion of the activity, as shown by the liver and jejunum TACs in both species and a bladder activity of 0.24 ± 0.19% of injected dose at 60 min in mice (Figures S8 and S10).
In vivo biodistribution studies of [^18F]RM365 were performed in female CD-1 mice (n = 4, 31 ± 3 g) and female Wistar rats (n = 4, 150 ± 11 g). For the uptake studies into the brain, male Wistar rats carrying the stereotactically injected AAV2/7-CaMKII0.4-intron-hCB2R(D80N) (right striatum) and AAV2/7-CaMKII0.4-intron-3flag-eGFP (control/contralateral, left striatum) were used (n = 6; bodyweights were 260 ± 11 g). Data were assessed by dynamic small animal PET (Nanoscan, Mediso, Budapest, Hungary) in 60 min recordings, followed by T1-weighted (GRE, TR/TE = 15.0/2.4 ms, 252/252, FA = 25°) MR imaging with whole-body coils for anatomical correlation and attenuation correction.
The PET scans were performed 3−4 months after the stereotactic injections. […] Nonparametric (semiquantitative) analysis of achieved time–activity curves (TACs) was performed with Microsoft Excel to determine the time to peak, the TAC peak value, and the area under the curve (AUC) [drawing 1] where c (radioactivity) is expressed as the standardized uptake value normalized to the bodyweight in g (SUV). […] Area under the curves (AUCs) and corresponding 95% confidence intervals (CIs, 95%) were calculated with GraphPad Prism (v.8.2) following the assumptions described by Gagnon et al.[39]

hCB2R = biological target: T1, hCB2R (Homo sapiens, UniProt P34972); experiment: Homologous competition binding of [18F]RM365 / RM365 on membranes of hCB2R-CHO cells
T1 construct: host or cells: CHO cells, stably transfected
From the text: To complement the indirect determination of the affinity of RM365 toward the CB2R in vitro, we performed a direct binding study with the radiofluorinated ligand using preparations of CHO cells stably transfected with the cloned human receptor and one spleen from a female SPRD rat expressing high levels of the receptor in the leukocytes.[12] The results of the homologous competition study shown in Figure 6 confirm the good affinity of [^18F]RM365 toward the human CB2R with a KD value of about 2 nM. […] Furthermore, the measurement signal obtained from the incubation of [^18F]RM365 with the homogenate of rat spleen was in the range of the values obtained for the nonspecific binding of the radioligand toward the preparation of CB2R-transfected CHO cells. We conclude that RM365 binds the rat CB2R with lower affinity than the human CB2R but expect no significant interactions of the radioligand with nonspecific binding sites.[82] […]
The nonspecific binding of the respective radioligand was determined by coincubation with CP55,940 (final concentration 10^–5 M). The normalized values of bound activity (% specific binding) were calculated and plotted vs the logarithm of the concentration of the respective test compound. […]

T1 sequence (P34972 whole entry): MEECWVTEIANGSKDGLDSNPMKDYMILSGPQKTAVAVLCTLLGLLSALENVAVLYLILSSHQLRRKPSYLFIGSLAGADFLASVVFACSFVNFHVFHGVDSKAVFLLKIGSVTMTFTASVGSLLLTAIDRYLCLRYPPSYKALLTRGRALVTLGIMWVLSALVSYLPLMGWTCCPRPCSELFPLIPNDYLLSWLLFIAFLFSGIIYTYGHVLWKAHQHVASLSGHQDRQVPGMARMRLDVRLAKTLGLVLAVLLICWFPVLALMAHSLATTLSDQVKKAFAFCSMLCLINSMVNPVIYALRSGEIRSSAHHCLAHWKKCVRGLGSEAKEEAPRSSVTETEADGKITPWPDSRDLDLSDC

- initial TAC peak value (SUVmean) ([1]; CD-1 (mice), Wistar (rats), mouse): > 4
- SUV in spleen ([1]; CD-1, mouse): 0.7 ± 0.1
- bladder activity ([1]; CD-1, mouse, 60 min): 0.24 ± 0.19 % of injected dose
- pIC50 (hCB2R; 0.078 nM [18F]RM365, increasing concentrations of RM365): 8.62
- pKd (hCB2R; 0.078 nM [18F]RM365, single experiment in triplicate, KD = IC50 - concentration radioligand): 8.63 and ~8.70
Compound: CC1(C)Cc2ccc(C#N)cc2[C@@H]1NC(=O)c1cc2cc([18F])ccc2[nH]1 [[^18F]RM365]
